# According to US20050215531A1, “Use of edg receptor binding agents in cancer” (priority 2002, published 2005):
# Counter-ions that a name gives are not always drawn.
# Experiments:
# [1] = system: human A375 melanoma cells; assay: In vivo antitumor activity, A375 melanoma transplanted into BALB/c-nu/nu mice
# Description: (§1) Antitumor activity is expressed as T/C% (mean increase in tumor volumes of treated animals divided by the mean increase of tumor volumes of control animals multiplied by 100).
# Aliquots of cancer cells (1×10^7), e.g. human A375 melanoma cells, are transplanted into BALB/c-nu/nu mice. When the tumors have reached ca. 10×10 mm in size, the animals are assigned randomly to four subgroups and the treatment with a compound of formula I is initiated. Animals are sacrificed after 2 week treatment, at which times tumors and tissues are harvested and prepared for morphological and molecular analysis. The size of the tumors is determined with a caliper.
# [2] = system: human MDA-MB-435 breast tumors; assay: Combination with a VEGF-R protein tyrosin kinase inhibitor, MDA-MB-435 breast tumors in nude mice; assay type: in vivo; settings: 2 weeks, Compound C HCl 2.5 mg/kg i.v. 5×/week, phthalazine succinate 100 mg/kg p.o. 5×/week, or both
# Procedure: as §1
# Nude mice transplanted with human MDA-MB-435 breast tumors are treated for 2 weeks with a VEGF-R protein tyrosin kinase inhibitor, e.g. 1-(4-chloroanilino)-4-(4-pyridylmethyl)phthalazine succinate, at a dose of 100 mg/kg p.o. 5×/week, a S1P receptor agonist, e.g. Compound C (hydrochloride salt), at a dose of 2.5 mg/kg i.v. 5×/week, or a combination of both. Antitumor is expressed as T/C% as indicated above.
# [3] = system: human A375 melanoma cells; assay: Combination with a VEGF-R protein tyrosin kinase inhibitor, A375 melanoma in nude mice; assay type: in vivo; settings: treated in a similar way (same doses) alone or combined
# [4] = system: HUVEC; assay: In vitro angiogenesis (tube formation) assay on Matrigel; assay type: cell-based, human; settings: for effect on VEGF-triggered tube formation: high concentrations, 2-5 μM
# Procedure: (§2) Human umbilical vein endothelial cells (HUVEC) are cultured at 37° C. and 5% CO2 in medium M199 supplemented with 20% SCS (HyClone, Logan, Utah), 1 U/ml heparin, 50 μg/ml ECGS, 2 mM glutamine, 100 U/ml penicillin and 0.1 mg/ml streptomycin. Cells are used for experiments up to passage number 5. Short-starved HUVEC are obtained by starving with 1% SCS-containing M199 for 5 h. Recombinant human VEGF165 is obtained from PromoCell (Heidelberg, Germany). Phospho-specific ERK½, p3B kinase polyclonal antibodies, nonphospho ERK½ antibodies and LumiGLO chemiluminescent reagent are from New England BioLabs (Beverly, Mass.), polyclonal IKB antibodies from Santa Cruz Biotechnology (Santa Cruz, Calif.). Peroxidase-conjugated donkey anti-rabbit immunoglobulin G (IgG) and sheep anti-mouse IgG are purchased from Amersham LIFE SCIENCE (Amersham Place, England). lmmobilon-P transfer membranes are products of Millipore (Bedford, Mass.). S is obtained from Sigma Chemical Co.; S1P is from Biomol. Compound A-phosphate stock solution is prepared by the following protocol. Compound A-phosphate is dissolved in methanol tracing with concentrated HCl (0.5 mg Compound A-phosphate in 500 μl of methanol plus 2 μl of HCl). Solvent from the resulting solution is evaporated under vacuum and the residue obtained is redissolved (variant 1) in 0.1% of defatted BSA solution in sterile deionized water (500 μl) or (variant 2) in 0.5% Triton X-100 in deionized water. The resulting stock solutions (2.5 mM) are sonicated and stored at 4° C.
# Morphogenesis of endothelial cells into capillary-like structures on Growth Factor Reduced Matrigel Matrix (BD Bioscience) is performed according to the manufacture procedure. Briefly, HUVEC are trypsinized, resuspended in serum-free Ml 99 medium containing soybean trypsin inhibitor (1 mg/ml, Sigma). After centrifugation cells are resuspended in serum-free medium at a density 0.5×10^5 cells/ml, and cell suspension is seeded in 96-well cell culture plates (Costar, Corning Incorporated) precoated with 50 μl of Matrigel in the absence or presence of various stimuli: VEGF at 1.5 nM, S1P at 0.1-2 μM, S at 0.5-2 μM, Compound A at 0.5-2 μM, and Compound A-phosphate at 0.1-2 μM. Eight hours later, cells on Matrigel are fixed with 3% formaldehyde in PBS and kept at 4° C. Results are quantitated from images made with a Nikon Diaphot microscope equipped with a cooled CCD camera (Kappa GmbH, Gleichen, Germany) by direct counting of branching points on two microscopic fields from each well done in duplicates.
# The effect of Compound A and Compound A-phosphate on morphogenic differentiation of endothelial cells is determined using an in vitro angiogenesis assay on Matrigel. Endothelial cell morphogenesis is a complex process that requires cell-extracellular matrix interactions, followed by matrix remodelling, stimulated migration, cell-cell interactions, and perivascular proteolysis. […] This may be interpreted as a possible involvement of EDG-1 (S1P1) receptor-mediated signaling events in Compound A-phosphate-stimulated bioresponses (see e.g. FIG. 3). […] Importantly, high concentrations of S and Compound A (2-5 μM) inhibited VEGF-triggered tube formation.
# [5] = system: HUVEC; assay: S1P-mediated HUVEC tube formation assay; assay type: cell-based, human; settings: treatment alone; branching points in 3 independent fields at 4× magnification
# Procedure: For the tube formation assay, HUVEC from passage 2-8 are used and are never greater than 70% confluent before harvesting. Cells are prepared for the assay by washing with Herpes Balanced Saline Solution (HBSS from Clonetics) and then trypsinizing with Trypsin/EDTA (0.25 mg/ml, from Clonetics). After approximately 90% of the cells have lifted off the plate, an equal volume of Trypsin Neutralizing Solution (TNS from Clonetics) is added and the cells are collected into a conical tube containing at least 10 ml of EBM-2 (Clonetics)+0.1% BSA (Sigma) media Cells are centrifuged at 1000 rpm for 5 minutes and the supematant is removed and replaced with 5 ml of fresh EBM-2+0.1% BSA. Cells are counted using a hemacytometer and the volume of the cell suspension is adjusted to achieve a concentration of 500,000 cells/ml. Conical tubes are prepared with test compounds at 100 nM, and pertussin toxin (PTx) at 10 ng/ml in each, then 1 ml of the cell suspension is added to each tube. Tubes are then incubated for ½ hour at 37° C., 5% CO2. The migration assay is performed using Fluoro-Blok 24-Multiwell insert Plates coated with fibronectin (8 μm pore size, Falcon #351147) instead of the individual inserts in a 24-well plate. Cells and test compounds are prepared and pre-incubated as described above, then 100 μl is added to each approriate well in the Insert Plate. 300 μl of the EBM-2+2% charcoastripped media without S1P is added to the bottoms of the wells marked for no stimulation (−), and 300 μl of the media containing S1P (500 nM) is added to the bottoms of the wells marked for stimulation (+). The plate is then incubated for 4 hours at 37° C., 5% CO2. […]
# After incubation, the plate is read on a Cytofluor II at an excitation of 485 nm and emission of 530 nm. The Fluoro-Blok coating in the inserts allows only the cells that have migrated to the bottom to be counted. […]
# Tube formation is quantitated by counting the number of branching points (two independent cords connecting) in 3 independent fields at 4× magnification.
# [6] = system: tissue factor; assay: Clotting assay, tissue factor activity on HUVEC; assay type: cell-based, human; settings: compound alone or in combinations, 0.5-2 μM, 4 hours
# Procedure: as §2
# Cells are seeded in 6-well plates at 80-90% confluency and grown overnight. Cells are scraped from the plates and analyzed for tissue factor activity according to the method as described in Clauss, M., J. Biol. Chem. 271,17629-17634 (1996), Mechtcheriakova, D., Blood 93,3811-3823 (1999). Briefly, after induction for 4 hours with VEGF (1.5 nM), TNF-α (100 U/ml), S (0.5-2 μM), S1P (0.5-2 μM), Compound A (0.5-2 μM), and Compound A-phosphate (0.5-2 μM), cells are washed twice and then scraped in 1 ml clotting buffer (12 mM sodium acetate, 7 mM diethylbarbitate and 130 mM sodium chloride; pH 7.4). 50 μl of resuspended cells are mixed with 50 μl of citrated plasma, and clotting times are determined after recalcfication with 50 μl of 20 mM CaCl2 solution at 37° C. TF-equivalents are determined by using a standard curve obtained from rabbit brain thromboplastin.
# An important characteristic feature of both classical inflammatory stimulus TNF-α and the main angiogenic growth factor VEGF on endothellal cells is their potency to upregulate tissue factor. Compound A, Compound A-phosphate, S or S1P are tested whether they also do induce tissue factor on HUVEC. […] The data obtained together indicate that Compound A, Compound A-phosphate, S and S1P mechanistically work distinctly to anglogenic VEGF and inflammatory TNF-α.
# [7] = system: ERK½ MAP kinases; assay: Western blot, activation of ERK½ MAP kinases in HUVEC; assay type: cell-based, human; settings: endothelial cells, 5 minute to 60 minute treatment
# Procedure: as §2
# After various treatments, the cells are washed twice with cold PBS, lysed in 100 μl of Laemmli buffer, scraped and heated for 5 min at 95° C. Total cell lysates are separated by SDS-PAGE and transferred to Immobilon-P membrane. The membrane is blocked for 30 minutes with PBS containing 0.1% Tween-20 and 3% skim milk and incubated for 1 hour at RT with a primary antibody diluted in blocking buffer. The membrane obtained is washed three times for 5 minutes with PBS containing 0.1% Tween-20 and incubated with peroxidase-conjugated secondary antibody for 1 hour at RT. After a washing step, the membrane is incubated for 1 minute with ECL reagent and exposed to film as required. For reprobing with another antibody, the membrane is washed twice in PBS, stripped for 30 min at 55° C. with stripping buffer (62.5 mM Tris-HCL, pH 6.8, 2% SDS, 100 mM 2-mercaptoethanol) and washed three times for 5 minutes with PBS at RT. The membrane is stored wet wrapped in SaranWrap at 4° C. after each immunodetection.
# Signal transduction via MAP idnases plays a key role in a variety of endothelial cell functions. Treatment of HUVEC with Compound A-phosphate at 0.5 μM may result in transient activation of ERK½ with a peak of phosphorylation/activation at 10 minutes and returning to baseline by 20 minutes (see e.g. FIG. 5). No activation of p38 kinase and JNK½ by Compound A-phosphate is detectable in HUVEC. […] To estimate the possible role of inflammatory/NFκB-dependent program in Compound A-phosphatestimulated bioresponses of endothelial cells, the membranes are reprobed with anti-IκB antibodies. IκB levels are not affected by Compound A-phosphate treatment.
compound,measurement,setting,value
"CCCCCCCOc1ccc(CCC(C)(N)CO)cc1 (stereo not shown) [Compound C, 2-amino-4-(4heptyloxyphenyl)-2-methyl-butanol]",tumor growth vs saline control,"[1]; hydrochloride salt form, 0.5 to 5 mg/kg, 2 week treatment",slows tumor growth
"Clc1ccc(Nc2nnc(Cc3ccncc3)c3ccccc23)cc1.O=C(O)CCC(=O)O [1-(4-chloroanilino)-4-(4-pyridylmethyl)phthalazine succinate, reference compound]",T/C%,[2],91%
same,T/C%,[3],44%
"CCCCCCCOc1ccc(CCC(C)(N)CO)cc1 (stereo not shown) [Compound C—HCl, 2-amino-4-(4heptyloxyphenyl)-2-methyl-butanol]",final T/C value,[1]; 2.5 mg/kg 5×/week,30%
same,T/C%,[2],66%
same,T/C%,[3],35%
pertussis toxin [reference compound],inhibition of Compound A-phosphate- and S1P-stimulated tube formation,[4]; PTX 50 ng/ml,practically completely inhibited
"CCCCCCCCCCCCC/C=C/[C@@H](O)[C@@H](N)COP(=O)(O)O [Compound S1P, sphingosine-1-phosphate, reference compound]",Branching Points,[5],42 ± 13
same,tissue factor activity,[6],none of these compounds alone or in combinations may elevate tissue factor activity
"CCCCCCCCCCCCC/C=C/[C@@H](O)[C@@H](N)CO [S, sphingosine, reference compound]",MAP kinase activation,[7],Neither Compound A nor S are able to induce MAP kinase activation
same,effect on the VEGF-induced tube formation,[4]; 1 μM,without having an inhibitory effect
same,effect on the ability of S1P and Compound A-phosphate to induce capillary-like structures,[4]; 1 μM,attenuates
same,potency to induce capillary-like structures,"[4]; 1 μM, compared with S1P",less potent than S1P
same,effect on VEGF-triggered tube formation,[4],inhibited
same,effect on VEGF-triggered tube formation,[4]; listed as sphingosine,inhibits
same,tissue factor activity,[6],none of these compounds alone or in combinations may elevate tissue factor activity
